Several values for one entry are separate records, joined by “and”; a condition that tells them apart may be missing. Equal values may be shown once.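 Grown in 96-well plates, cells were treated for 48 hours with each compound at five concentrations. Insufficient inhibition: endpoint recorded as highest concentration tested. GI50: concentration for 50% inhibition of growth. TGI: total growth inhibition.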
System: PC-3 prostate
Assay: DTP human tumour cell line panel, 48 h

SMILES	TGI [µM]
CC(O)C1(CNc2cc(Cl)nc(N)n2)CCC1 (stereo unspecified)	> 100
COC(=O)C(Cc1c[nH]c2ccccc12)NP(=O)(O)OCC1OC(n2cc(I)c(=O)[nH]c2=O)CC1O (stereo unspecified)	> 100
O=c1cnn(C/C=C/CO)c(=O)[nH]1	> 100
N#Cc1c(-c2ccc(Cl)cc2Cl)nc2[nH][nH]c(=S)n2c1=O	> 100

System: KM12 colon
Assay: DTP human tumour cell line panel, 48 h

SMILES	TGI [µM]	GI50 [µM]
CCOC(=O)CN1C(=O)c2ccc(NC(=O)C(=O)O)cc2S1(=O)=O	> 100	–
COc1ccc2cc(/C=N/NC(=O)Nc3ccccc3)ccc2c1	> 100	–
C=C(Cl)C(Br)(CCl)CCC(Br)C(C)(C)Cl (stereo unspecified)	9.46	2.94
CC(O)C1(CNc2cc(Cl)nc(N)n2)CCC1 (stereo unspecified)	> 100	–
COC(=O)C(Cc1c[nH]c2ccccc12)NP(=O)(O)OCC1OC(n2cc(I)c(=O)[nH]c2=O)CC1O (stereo unspecified)	> 100	–
O=c1cnn(C/C=C/CO)c(=O)[nH]1	> 100	–
N#Cc1c(-c2ccc(Cl)cc2Cl)nc2[nH][nH]c(=S)n2c1=O	> 100	–

System: LOX IMVI melanoma
Assay: DTP human tumour cell line panel, 48 h

SMILES	TGI	GI50 [µM]
CCOC(=O)CN1C(=O)c2ccc(NC(=O)C(=O)O)cc2S1(=O)=O	> 100 µM	–
COc1ccc2cc(/C=N/NC(=O)Nc3ccccc3)ccc2c1	> 100 µM	–
C=C(Cl)C(Br)(CCl)CCC(Br)C(C)(C)Cl (stereo unspecified)	3.73 µM and 4.22 µM	1.76
CC(O)C1(CNc2cc(Cl)nc(N)n2)CCC1 (stereo unspecified)	> 100 µM	–
COC(=O)C(Cc1c[nH]c2ccccc12)NP(=O)(O)OCC1OC(n2cc(I)c(=O)[nH]c2=O)CC1O (stereo unspecified)	> 100 µM	–
O=c1cnn(C/C=C/CO)c(=O)[nH]1	86 µM	–
N#Cc1c(-c2ccc(Cl)cc2Cl)nc2[nH][nH]c(=S)n2c1=O	> 100 µM	–

System: UO-31 renal
Assay: DTP human tumour cell line panel, 48 h

SMILES	TGI	GI50 [µM]
CCOC(=O)CN1C(=O)c2ccc(NC(=O)C(=O)O)cc2S1(=O)=O	> 100 µM	–
COc1ccc2cc(/C=N/NC(=O)Nc3ccccc3)ccc2c1	> 100 µM	–
C=C(Cl)C(Br)(CCl)CCC(Br)C(C)(C)Cl (stereo unspecified)	8.19 µM and 4.53 µM	2.17
CC(O)C1(CNc2cc(Cl)nc(N)n2)CCC1 (stereo unspecified)	> 100 µM	–
COC(=O)C(Cc1c[nH]c2ccccc12)NP(=O)(O)OCC1OC(n2cc(I)c(=O)[nH]c2=O)CC1O (stereo unspecified)	> 100 µM	–
O=c1cnn(C/C=C/CO)c(=O)[nH]1	> 100 µM	–
N#Cc1c(-c2ccc(Cl)cc2Cl)nc2[nH][nH]c(=S)n2c1=O	> 100 µM	–

System: BT-549 breast
Assay: DTP human tumour cell line panel, 48 h

SMILES	TGI	GI50 [µM]
CCOC(=O)CN1C(=O)c2ccc(NC(=O)C(=O)O)cc2S1(=O)=O	> 100 µM	–
COc1ccc2cc(/C=N/NC(=O)Nc3ccccc3)ccc2c1	> 100 µM	–
C=C(Cl)C(Br)(CCl)CCC(Br)C(C)(C)Cl (stereo unspecified)	3.83 µM and 4.53 µM	1.99
CC(O)C1(CNc2cc(Cl)nc(N)n2)CCC1 (stereo unspecified)	> 100 µM	–
COC(=O)C(Cc1c[nH]c2ccccc12)NP(=O)(O)OCC1OC(n2cc(I)c(=O)[nH]c2=O)CC1O (stereo unspecified)	> 100 µM	–
O=c1cnn(C/C=C/CO)c(=O)[nH]1	> 100 µM	–
N#Cc1c(-c2ccc(Cl)cc2Cl)nc2[nH][nH]c(=S)n2c1=O	> 100 µM	–

System: SNB-75 CNS
Assay: DTP human tumour cell line panel, 48 h

SMILES	TGI [µM]
COc1ccc2cc(/C=N/NC(=O)Nc3ccccc3)ccc2c1	> 100
C=C(Cl)C(Br)(CCl)CCC(Br)C(C)(C)Cl (stereo unspecified)	11
COC(=O)C(Cc1c[nH]c2ccccc12)NP(=O)(O)OCC1OC(n2cc(I)c(=O)[nH]c2=O)CC1O (stereo unspecified)	> 100
O=c1cnn(C/C=C/CO)c(=O)[nH]1	> 100

System: NCI/ADR-RES ovarian
Assay: DTP human tumour cell line panel, 48 h

SMILES	TGI [µM]	GI50 [µM]
CCOC(=O)CN1C(=O)c2ccc(NC(=O)C(=O)O)cc2S1(=O)=O	> 100	–
COc1ccc2cc(/C=N/NC(=O)Nc3ccccc3)ccc2c1	> 100	–
C=C(Cl)C(Br)(CCl)CCC(Br)C(C)(C)Cl (stereo unspecified)	10.9	4.39
CC(O)C1(CNc2cc(Cl)nc(N)n2)CCC1 (stereo unspecified)	> 100	–
COC(=O)C(Cc1c[nH]c2ccccc12)NP(=O)(O)OCC1OC(n2cc(I)c(=O)[nH]c2=O)CC1O (stereo unspecified)	> 100	–
O=c1cnn(C/C=C/CO)c(=O)[nH]1	> 100	–
N#Cc1c(-c2ccc(Cl)cc2Cl)nc2[nH][nH]c(=S)n2c1=O	> 100	–

System: EKVX NSCLC
Assay: DTP human tumour cell line panel, 48 h

SMILES	TGI [µM]
CCOC(=O)CN1C(=O)c2ccc(NC(=O)C(=O)O)cc2S1(=O)=O	> 100
C=C(Cl)C(Br)(CCl)CCC(Br)C(C)(C)Cl (stereo unspecified)	12.8
CC(O)C1(CNc2cc(Cl)nc(N)n2)CCC1 (stereo unspecified)	> 100

Source: PubChem BioAssay (NCI)
